The record followed here is ChEMBL document CHEMBL4038292 (Bioorg Med Chem Lett, 2017).

A short description of series [1]: Effect on human sperm motility at 10^-6 mol/L measured immediately post dose by Makler counting chamber method (reference value: 70 +/- 4.2%). In kind it is ADME, cell-based. The following applies: 1 µM.
A short description of series [2]: Effect on human sperm motility at 10^-5 mol/L measured immediately post dose by Makler counting chamber method (reference value: 70 +/- 4.2%). The following applies: 10 µM. In kind it is ADME, cell-based.
A short description of series [3]: Effect on human sperm motility at 10^-6 mol/L measured at 30 mins post dose by Makler counting chamber method (reference value: 66.9 +/- 4.6%). In kind it is ADME, cell-based. The settings on record: 0.5 h, 1 µM.
Series [4] can be described thus: Half life in Kunming mouse plasma at 500 uM by RP-HPLC method. Format: ADME, cell-free.
Series [5] can be described thus: Half life in Kunming mouse brain homogenate at 500 uM by RP-HPLC method. Format: ADME, tissue-based.
Series [6] has as its system Mus musculus. Description: Antinociceptive activity in mouse model of thermal-induced nociception assessed as increase in latency to tail withdrawal at 2.5 nmol/kg, icv measured up to 60 mins by tail flick test. In kind it is functional.
Series [7] can be described thus: Effect on human sperm motility at 10^-6 mol/L measured at 10 mins post dose by Makler counting chamber method (reference value: 69 +/- 4.7%). Format: ADME, cell-based. The following applies: 1 µM.
A short description of series [8]: Effect on human sperm motility at 10^-5 mol/L measured at 10 mins post dose by Makler counting chamber method (reference value: 69 +/- 4.7%). In kind it is ADME, cell-based. The settings on record: 10 µM.
The nature of series [9]: Effect on human sperm motility at 10^-6 mol/L measured at 90 mins post dose by Makler counting chamber method (reference value: 62.1 +/- 5.7%). Format: ADME, cell-based. The settings on record: 1.5 h, 1 µM.
For the next series, the species on record is Rattus norvegicus. Description: Selectivity ratio of Ki for displacement of [3H]DPDPE from delta-opioid receptor in Wistar rat membrane to Ki for displacement of [3H]DAMGO from mu-opioid receptor in Wistar rat brain membrane. In kind it is cell membranes. (Loss of bound radioactivity is the signal in a displacement assay; it reports binding, not function.)

Series [10] is described as follows: Effect on human sperm motility at 10^-7 mol/L measured at 30 mins post dose by Makler counting chamber method (reference value: 66.9 +/- 4.6%). The following applies: 0.5 h, 0.1 µM. In kind it is ADME, cell-based.
A short description of series [11]: Effect on human sperm motility at 10^-5 mol/L measured at 30 mins post dose by Makler counting chamber method (reference value: 66.9 +/- 4.6%). The following applies: 0.5 h, 10 µM. In kind it is ADME, cell-based.
Series [12] in a line: Effect on human sperm motility at 10^-7 mol/L measured at 90 mins post dose by Makler counting chamber method (reference value: 62.1 +/- 5.7%). In kind it is ADME, cell-based. The following applies: 1.5 h, 0.1 µM.
For series [13], the system named is Mus musculus. Put plainly: Antinociceptive activity in mouse model of thermal-induced nociception assessed as increase in latency to tail withdrawal at 10 nmol/kg, icv measured 10 to 80 mins post dose by tail flick test relative to control. Format: functional. Background: In hot-plate and tail-flick tests a longer latency is read as antinociception.
Series [14] is described as follows: Effect on human sperm motility at 10^-5 mol/L measured at 90 mins post dose by Makler counting chamber method (reference value: 62.1 +/- 5.7%). In kind it is ADME, cell-based. The settings on record: 1.5 h, 10 µM.
Series [15] in a line: Effect on human sperm motility at 10^-6 mol/L measured at 60 mins post dose by Makler counting chamber method (reference value: 64.8 +/- 6.6%). In kind it is ADME, cell-based. The following applies: 1 h, 1 µM.
Series [16] deals with Delta-type opioid receptor (Rattus norvegicus, UniProt P33533). Description: Displacement of [3H]DPDPE from delta-opioid receptor in Wistar rat brain membrane after 3 hrs by microbeta scintillation counting method. Format: cell membranes.
Series [17] relates to Mus musculus. Description: Antinociceptive activity in mouse model of thermal-induced nociception assessed as increase in latency to tail withdrawal at 5 mg/kg, sc measured up to 90 mins by tail flick test. Format: functional, organism-based.
Series [18] can be described thus: Effect on human sperm motility at 10^-7 mol/L measured immediately post dose by Makler counting chamber method (reference value: 70 +/- 4.2%). The following applies: 0.1 µM. Format: ADME, cell-based.
A further series addresses Mu-type opioid receptor (Rattus norvegicus, UniProt P33535). Description: Displacement of [3H]DAMGO from mu-opioid receptor in Wistar rat brain membrane after 1 hr by microbeta scintillation counting method. In kind it is cell membranes.
Series [19] in a line: Effect on human sperm motility at 10^-7 mol/L measured at 60 mins post dose by Makler counting chamber method (reference value: 64.8 +/- 6.6%). Format: ADME, cell-based. The settings on record: 1 h, 0.1 µM.
For series [20], the system named is Mus musculus. Put plainly: Antinociceptive activity in mouse model of thermal-induced nociception assessed as increase in latency to tail withdrawal at 10 mg/kg, sc measured up to 90 mins by tail flick test. In kind it is functional, organism-based.
Series [21] is described as follows: Effect on human sperm motility at 10^-7 mol/L measured at 10 mins post dose by Makler counting chamber method (reference value: 69 +/- 4.7%). The settings on record: 0.1 µM. Format: ADME, cell-based.
Series [22] can be described thus: Effect on human sperm motility at 10^-5 mol/L measured at 60 mins post dose by Makler counting chamber method (reference value: 64.8 +/- 6.6%). Format: ADME, cell-based. The following applies: 1 h, 10 µM.
The subject of series [23] is Mus musculus. Put plainly: Antinociceptive activity in mouse model of thermal-induced nociception assessed as increase in latency to tail withdrawal at 5 mg/kg, sc measured up to 50 mins by tail flick test. Format: functional, organism-based.
Series [24] deals with Mus musculus. Put plainly: Antinociceptive activity in mouse model of thermal-induced nociception assessed as increase in latency to tail withdrawal at 10 nmol/kg, icv measured up to 50 mins by tail flick test. In kind it is functional.
The test system of series [25] is Mus musculus. Description: Antinociceptive activity in mouse model of thermal-induced nociception assessed as increase in latency to tail withdrawal at 10 nmol/kg, icv measured up to 60 mins by tail flick test. In kind it is functional.

The source made the active and inactive calls. No cut-off for these calls is given here.

In general, half-life refers to how long it takes for the measured level to halve. As usually defined, the Ki is a dissociation constant, usually derived from enzyme kinetics or from competition with a known ligand.

Chain of Delta-type opioid receptor (P33533 whole entry): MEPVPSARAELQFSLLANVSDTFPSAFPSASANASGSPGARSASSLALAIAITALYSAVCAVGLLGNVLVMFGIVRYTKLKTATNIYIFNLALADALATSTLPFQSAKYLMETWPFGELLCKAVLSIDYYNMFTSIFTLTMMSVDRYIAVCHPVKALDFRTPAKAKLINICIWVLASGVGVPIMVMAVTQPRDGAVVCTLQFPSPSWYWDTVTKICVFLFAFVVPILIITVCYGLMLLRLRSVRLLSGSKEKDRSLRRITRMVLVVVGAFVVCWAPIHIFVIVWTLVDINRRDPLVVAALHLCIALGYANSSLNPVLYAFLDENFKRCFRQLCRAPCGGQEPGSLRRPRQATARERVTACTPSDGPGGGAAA
Chain of Mu-type opioid receptor (P33535 whole entry): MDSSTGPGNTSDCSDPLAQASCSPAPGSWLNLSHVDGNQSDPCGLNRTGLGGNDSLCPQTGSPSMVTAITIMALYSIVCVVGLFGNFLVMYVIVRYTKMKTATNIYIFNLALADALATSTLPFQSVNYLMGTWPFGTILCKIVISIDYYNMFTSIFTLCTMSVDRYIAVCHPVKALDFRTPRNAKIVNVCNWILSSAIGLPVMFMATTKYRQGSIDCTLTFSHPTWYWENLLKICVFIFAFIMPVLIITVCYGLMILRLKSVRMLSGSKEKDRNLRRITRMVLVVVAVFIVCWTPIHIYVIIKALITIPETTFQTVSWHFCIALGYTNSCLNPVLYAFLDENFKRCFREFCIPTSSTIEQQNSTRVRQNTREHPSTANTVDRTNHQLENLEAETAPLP

Regarding `C[C@@H](NC(=O)[C@H](Cc1ccc(O)cc1)NC(=N)N)C(=O)NCC(=O)N[C@@H](Cc1ccc(Cl)cc1)C(N)=O`, the Activity in [1] worked out at 69.5%; in series [2], 60.1%; in [3], 64.6%; in series [7], 64.6%; in [8], 59.3%; in [9], 78.3%. Besides, the Activity is given as 59% in series [10]; 56.1% in [11]; 53.2% in series [12]; 53.5% in series [14]; 72% in [15]; 62.7% in series [18]. The Activity is given as 55.2% in series [19], 58.8% in series [21] and 55.3% in series [22]. Moreover, the half-life at 500 µM was 3.91 h in [4] and 6.52 h in series [5]. Further, the result in the series on Mus musculus [6], in the series with Mus musculus [17] and in the series on Mus musculus [20] was Active. In addition, the Ratio Ki in the series listed under Rattus norvegicus was found to be 288. Besides, the MPE in the series with Mus musculus [13] was 90 - 100%. In addition, the Ki in series [16] was determined as 0.101 µM; on Mu-type opioid receptor, 0.00035 µM.
Consider `C[C@@H](NC(=O)[C@@H](N)Cc1ccc(O)cc1)C(=O)NCC(=O)N[C@@H](Cc1ccccc1)C(N)=O`, for which the half-life at 500 µM in [4] was determined as 4.38 h; in [5], 4.33 h. In addition, the outcome in the series with Mus musculus [23] and in the series with Mus musculus [24] was Active. Besides, the Ratio Ki in the series filed under Rattus norvegicus was determined as 1800. The Ki in series [16] worked out at 3.8 µM; at Mu-type opioid receptor, 0.00211 µM.
In the case of `C[C@@H](NC(=O)[C@@H](N)Cc1ccc(O)cc1)C(=O)NCC(=O)N[C@@H](Cc1ccc(Cl)cc1)C(N)=O`, the half-life at 500 µM in series [4] amounted to 3.99 h; in series [5] it was 5.29 h. The result with Mus musculus [23] and with Mus musculus [24] was Active. Moreover, the values for the Ki (in series [16]; on Mu-type opioid receptor) were more than 1 µM and 0.00124 µM, respectively.
Consider `CN1CC[C@]23c4c5ccc(O)c4O[C@H]2[C@@H](O)C=C[C@H]3[C@H]1C5` [MORPHINE], for which the Activity in series [1] is reported as 65.6%; in series [2], 62.7%; in [3] it was 63%; in series [7] it was 62.7%; in [8], 60.2%; in series [9] it was 59.3%. Also, the Activity is 67% in series [10]; 58.8% in series [11]; 57.7% in series [12]; 55.7% in series [14]; 60.7% in series [15]; 69.4% in series [18]. Moreover, the Activity is 69% in [19], 70.8% in series [21] and 57.6% in series [22]. In addition, the outcome in the series on Mus musculus [23] was Active.
`NC(=O)[C@H](Cc1ccccc1)NC(=O)[C@H](Cc1c[nH]c2ccccc12)NC(=O)[C@@H]1CCCN1C(=O)[C@@H](N)Cc1ccc(O)cc1` [ENDOMORPHIN-1]: the half-life at 500 µM in series [4] was 0.101 h; in series [5], 0.392 h. For the same compound, in the series with Mus musculus [25], the outcome was Active.
Regarding `N=C(N)N[C@@H](Cc1ccc(O)cc1)C(=O)N1CCC[C@@H]1C(=O)NCC(=O)N[C@@H](Cc1ccccc1)C(N)=O`, the figures for the half-life at 500 µM in series [4] and in [5] were 3.68 h and 4.94 h, respectively. In the series listed under Rattus norvegicus, the Ratio Ki came to 18.4. In addition, the Ki turned out to be 4.55 µM in series [16] and 0.247 µM on Mu-type opioid receptor.
Regarding `C[C@@H](NC(=O)[C@H](Cc1ccc(O)cc1)NC(=N)N)C(=O)NCC(=O)N[C@@H](Cc1ccccc1)C(N)=O`, the Activity turned out to be 64.5% in series [1]; 62.1% in series [2]; 59.6% in series [3]; 60.6% in series [7]; 60.3% in series [8]; 57.3% in series [9]. In addition, the Activity in series [10] came out at 62.8%; in [11], 59.1%; in [12] it was 53.2%; in series [14], 56.5%; in series [15] it was 58%; in [18] it was 66.7%. Moreover, the Activity in [19] is reported as 58.6%; in series [21] it was 68.5%; in series [22] it was 59%. The half-life at 500 µM is 3.87 h in [4] and 6.07 h in [5]. Besides, the outcome with Mus musculus [6], with Mus musculus [17] and with Mus musculus [20] was Active. In addition, in the series listed under Rattus norvegicus, the Ratio Ki was 2000. For the same compound, the MPE in the series on Mus musculus [13] is on record as 90 - 100%. Further, the Ki stood at 0.84 µM in [16] and 0.00042 µM on Mu-type opioid receptor.
